Assay [1] has as its system Mus musculus. Briefly: Anti-inflammatory activity against MOG35-55-induced experimental autoimmune encephalomyelitis C57BL/6 mouse model assessed as methylation of CpG sites of SOCS5 gene promoter in brain at 600 mg/kg, ig for 14 days starting from 12th day of immunization by PCR analysis (reference value: 10.6 +/-4%). Type of assay: functional. Conditions: time 14 day.

Assay [2] deals with Mus musculus. Briefly: Anti-inflammatory activity against MOG35-55-induced experimental autoimmune encephalomyelitis C57BL/6 mouse model assessed as fold change in YWHAH gene expression in brain at 300 mg/kg/day, ig for 14 days starting from 12th day of immunization by RT-qPCR analysis relative to control. Type of assay: functional. Conditions: time 14 day. (In general: In qPCR the cycle at which signal appears reflects the starting amount.)

Assay [3] deals with Mus musculus. In words: Anti-inflammatory activity against MOG35-55-induced experimental autoimmune encephalomyelitis C57BL/6 mouse model assessed as reduction in serum monokines level by measuring reduction in IL-6 level at 600 mg/kg/day, ig for 14 days starting from 12th day of immunization by ELISA. The assay is classed as functional, organism-based. Conditions: time 14.0 day. In general terms: ELISA stands for enzyme-linked immunosorbent assay.

Assay [4] has as its system Mus musculus. In words: Anti-inflammatory activity against MOG35-55-induced experimental autoimmune encephalomyelitis C57BL/6 mouse model assessed as methylation of CpG sites of IL18 gene promoter in brain at 600 mg/kg, ig for 14 days starting from 12th day of immunization by PCR analysis (reference value: 29.2 +/-8%). The assay is classed as functional. Conditions: time 14 day.

Assay [5] deals with Mus musculus. In words: Anti-inflammatory activity against MOG35-55-induced experimental autoimmune encephalomyelitis C57BL/6 mouse model assessed as fold change in H2EB1 (HLA-DRB1) gene expression in brain at 300 mg/kg/day, ig for 14 days starting from 12th day of immunization by RT-qPCR analysis relative to control. Conditions: time 14 day. The assay is classed as functional.

Assay [6] relates to Mus musculus. Briefly: Anti-inflammatory activity against MOG35-55-induced experimental autoimmune encephalomyelitis C57BL/6 mouse model assessed as fold change in TNF-alpha gene expression in brain at 600 mg/kg/day, ig for 14 days starting from 12th day of immunization by RT-qPCR analysis relative to control. Type of assay: functional. To be noted: time 14 day.
Assay [7] has as its system Mus musculus. In words: Anti-inflammatory activity against MOG35-55-induced experimental autoimmune encephalomyelitis C57BL/6 mouse model assessed as methylation of CpG sites of IL13 gene promoter in brain at 600 mg/kg, ig for 14 days starting from 12th day of immunization by PCR analysis (reference value: 57.3 +/-8%). Type of assay: functional. Conditions: time 14 day.

Assay [8] deals with Mus musculus. In words: Anti-inflammatory activity against MOG35-55-induced experimental autoimmune encephalomyelitis C57BL/6 mouse model assessed as reduction in serum chemokines level by measuring reduction in IL-3 level at 600 mg/kg/day, ig for 14 days starting from 12th day of immunization by ELISA. Type of assay: functional, organism-based. To be noted: time 14.0 day.
In assay [9] the test system is Mus musculus. In words: Anti-inflammatory activity against MOG35-55-induced experimental autoimmune encephalomyelitis C57BL/6 mouse model assessed as fold change in MMP9 gene expression in brain at 300 mg/kg/day, ig for 14 days starting from 12th day of immunization by RT-qPCR analysis relative to control. Type of assay: functional. Conditions: time 14 day.
The test system of assay [10] is Mus musculus. In words: Anti-inflammatory activity against MOG35-55-induced experimental autoimmune encephalomyelitis C57BL/6 mouse model assessed as reduction in EAE symptoms by measuring neurological regeneration and behavioral impotence at 600 mg/kg/day, ig for 14 days starting from 12th day of immunization. Type of assay: functional, organism-based. To be noted: time 14.0 day.

Assay [11] concerns Mus musculus. Briefly: Anti-inflammatory activity against MOG35-55-induced experimental autoimmune encephalomyelitis C57BL/6 mouse model assessed as fold change in CXCL9 gene expression in brain at 600 mg/kg/day, ig for 14 days starting from 12th day of immunization by RT-qPCR analysis relative to control. Type of assay: functional. Conditions: time 14 day.
Assay [12] deals with Mus musculus. In words: Anti-inflammatory activity against MOG35-55-induced experimental autoimmune encephalomyelitis C57BL/6 mouse model assessed as fold change in TGFB1 gene expression in brain at 300 mg/kg/day, ig for 14 days starting from 12th day of immunization by RT-qPCR analysis relative to control. Type of assay: functional. To be noted: time 14 day.
The subject of assay [13] is Mus musculus. Briefly: Anti-inflammatory activity against MOG35-55-induced experimental autoimmune encephalomyelitis C57BL/6 mouse model assessed as reduction in serum Th1 cytokine level by measuring reduction in TNF-alpha level at 0.3 mg/kg/day, ig for 14 days starting from 12th day of immunization by ELISA. Type of assay: functional, organism-based. Conditions: time 14.0 day.

For assay [14], the system named is Mus musculus. Briefly: Anti-inflammatory activity against MOG35-55-induced experimental autoimmune encephalomyelitis C57BL/6 mouse model assessed as reduction in serum chemokines level by measuring reduction in […] level at 0.3 mg/kg/day, ig for 14 days starting from 12th day of immunization by ELISA. Type of assay: functional, organism-based. Conditions: time 14.0 day.

Assay [15] deals with Mus musculus. Briefly: Anti-inflammatory activity against MOG35-55-induced experimental autoimmune encephalomyelitis C57BL/6 mouse model assessed as reduction in serum chemokines level by measuring reduction in FASL level at 0.3 mg/kg/day, ig for 14 days starting from 12th day of immunization by ELISA. The assay is classed as functional, organism-based. Conditions: time 14.0 day.

Assay [16] has as its system Mus musculus. Briefly: Anti-inflammatory activity against MOG35-55-induced experimental autoimmune encephalomyelitis C57BL/6 mouse model assessed as fold change in IL6 gene expression in brain at 0.3 mg/kg/day, ig for 14 days starting from 12th day of immunization by RT-qPCR analysis relative to control. The assay is classed as functional. To be noted: time 14 day.
The test system of assay [17] is Mus musculus. Briefly: Anti-inflammatory activity against MOG35-55-induced experimental autoimmune encephalomyelitis C57BL/6 mouse model assessed as reduction in serum chemokines level by measuring reduction in CXCL1 level at 0.3 mg/kg/day, ig for 14 days starting from 12th day of immunization by ELISA. The assay is classed as functional, organism-based. To be noted: time 14.0 day.

For assay [18], the system named is Mus musculus. In words: Anti-inflammatory activity against MOG35-55-induced experimental autoimmune encephalomyelitis C57BL/6 mouse model assessed as fold change in MAG gene expression in brain at 0.15 mg/kg/day, ig for 14 days starting from 12th day of immunization by RT-qPCR analysis relative to control. Type of assay: functional. Conditions: time 14 day.
In assay [19] the test system is Mus musculus. In words: Anti-inflammatory activity against MOG35-55-induced experimental autoimmune encephalomyelitis C57BL/6 mouse model assessed as fold change in YWHAH gene expression in brain at 0.3 mg/kg/day, ig for 14 days starting from 12th day of immunization by RT-qPCR analysis relative to control. Type of assay: functional. To be noted: time 14 day.
For assay [20], the system named is Mus musculus. Briefly: Anti-inflammatory activity against MOG35-55-induced experimental autoimmune encephalomyelitis C57BL/6 mouse model assessed as methylation of CpG sites of IL10RA gene promoter in brain at […], ig for 14 days starting from 12th day of immunization by PCR analysis (reference value: 34.9 +/-4%). Type of assay: functional. Conditions: time 14 day.

Assay [21] deals with Mus musculus. Briefly: Anti-inflammatory activity against MOG35-55-induced experimental autoimmune encephalomyelitis C57BL/6 mouse model assessed as reduction in serum chemokines level by measuring reduction in IL-3 level at 0.3 mg/kg/day, ig for 14 days starting from 12th day of immunization by ELISA. Conditions: time 14.0 day. The assay is classed as functional, organism-based.

Assay [22] relates to Mus musculus. Briefly: Anti-inflammatory activity against MOG35-55-induced experimental autoimmune encephalomyelitis C57BL/6 mouse model assessed as methylation of CpG sites of […] gene promoter in brain at […], ig for 14 days starting from 12th day of immunization by PCR analysis (reference value: 13.1 +/-8%). The assay is classed as functional. Conditions: time 14 day.

The test system of assay [23] is Mus musculus. Briefly: Anti-inflammatory activity against MOG35-55-induced experimental autoimmune encephalomyelitis C57BL/6 mouse model assessed as reduction in serum Th1 cytokine level by measuring reduction in IFNG level at 0.3 mg/kg/day, ig for 14 days starting from 12th day of immunization by ELISA. The assay is classed as functional, organism-based. Conditions: time 14.0 day.

Activity calls are given as the source filed them. The calls are words filed in the database; no cut-off is given here.

As to `CCCCCCCCCCCCCCCCCCCCCCCCC(=O)O[C@H]1CC[C@]2(C)[C@H]3CC=C4[C@@H]5CC(C)(C)CC[C@]5(CO)CC[C@@]4(C)[C@]3(C)CC[C@H]2C1(C)C`, the Activity is 9.3% with Mus musculus [1], 40.5% in the assay on Mus musculus [4] and 47.9% with Mus musculus [7]. For the same compound, the “fold change (FC)” value in the assay on Mus musculus [2] is recorded as -1.38; in the assay with Mus musculus [5], 2.83; in the assay on Mus musculus [6], 1.52; in the assay on Mus musculus [9] it was 1.42; in the assay on Mus musculus [11], -1.14; with Mus musculus [12], -1.51. Further, the outcome in the assay with Mus musculus [3], in the assay on Mus musculus [8] and with Mus musculus [10] was Active.
For `CCCCCCCCc1ccc(CCC(N)(CO)CO)cc1` [FINGOLIMOD], the result in the assay with Mus musculus [13], in the assay with Mus musculus [14], with Mus musculus [15], in the assay on Mus musculus [17], with Mus musculus [21] and in the assay with Mus musculus [23] was Active. The entries for the “fold change (FC)” value in the assay on Mus musculus [16], with Mus musculus [18] and with Mus musculus [19] were -2.28, -1.85 and -1.26, respectively. The Activity came out at 51% in the assay on Mus musculus [20] and 19% with Mus musculus [22].
